Results taken from patent US12458673B2, “Use of specific phages for the treatment of nontuberculosis mycobacteria (NTM) infections” (priority 2019, dated 2025).

System: M. abscessus clinical isolates
Test: Antibiotic resistance profile of clinical isolates

Substance: Trimethoprim/Sulfa
- Antibiotic Susceptibility: 1
